This is an account of results in patent publication US10507214B2 (Druggability Technologies IP Holdco Limited, priority 2016, dated 2019).

Series [1] in a line: Apparent solubility by UV-VIS spectroscopy after 100 nm filtration. Type of series: physicochemical. The settings on record: thermodynamic from solid; redispersed at 2 mg/mL in ultrapurified water, room temperature. From the text:
The resulting solutions were filtered by 100 nm disposable syringe filter.

A short description of series [2]: PAMPA permeability. Type of series: in vitro ADME. The settings on record: pH 7, in water, FaSSIF and FeSSIF. For orientation: The PAMPA barrier holds no transporters, so it reflects passive diffusion.
Series [3] can be described thus: In-vivo PK test in beagle dogs. The settings on record: oral, dispersed granulates, beagle dogs following a high-fat meal.
The conditions of series [4]: cited from earlier work.
The conditions of series [5]: healthy subjects, within the clinical dose range; cited from earlier work.
For series [6] the following is noted: cited from earlier work. The source holds these as a separate data set.
For series [7] the following is noted: single dose of 200 mg of current formulation; cited from earlier work.
Where [8] appears, read: single oral dose of radiolabeled drug.

In brackets after ≈: the same amount, converted by molar mass. Like-named read-outs stand apart in the source and are kept apart here. A value given as a limit tells only on which side of the number the result lay.

Usually solubility stands for the dissolved amount per volume that the medium holds. Usually Papp stands for a coefficient for how fast a substance crosses the barrier. High values mean fast passage, low ones slow passage. As usually defined, the Tmax is the time at which the peak concentration occurs.

As to `Cc1ccc(-c2cc(C(F)(F)F)nn2-c2ccc(S(N)(=O)=O)cc2)cc1` [crystalline Celecoxib (micronized)], in series [1], the solubility is 2.85 µg/mL (≈ 7.47 µM). The same compound displayed a Papp at 4 h in series [2] of less than 0.2 ×10⁻⁶ cm/s. Besides, the Tmax in series [3] (dog, plasma, 5 mg/kg) worked out at 2 h. For the same compound, the t250 ng/ml in series [3] came out at 45 min.

For `Cc1ccc(-c2cc(C(F)(F)F)nn2-c2ccc(S(N)(=O)=O)cc2)cc1` [Celecoxib, 4-[5-(4-methylphenyl)-3-(trifluoromethyl)-1H-pyrazol-1-yl] benzenesulfonamide], the “time of peak plasma levels” value in series [4] (after an oral dose) is on record as “approximately 3 hrs”. The effective half-life entry in series [4] (fasted conditions) is listed as “approximately 11 hours”. Further, the “dose proportionality of Cmax and AUC” value in series [4] (fasting conditions, up to 200 mg BID) is recorded as “roughly dose-proportional”. For the same compound, the “overall systemic exposure (AUC), intact capsule versus capsule contents sprinkled on applesauce” value in series [4] (healthy adult volunteers) is “equivalent”. Further, in series [4] (in vivo), the “apparent plasma clearance (CL/F)” value is on record as “about 500 mL/min”; the “unchanged drug recovered in the urine and feces” value was less than 3%. Also, the steady-state conditions reached in series [4] (multiple dosing) was no more than 5 days. Further, the “time of peak plasma levels” value in series [4] (single dose of 200 mg of current formulation, oral) is 3 h. Besides, in series [4] (setting [8]), the “carboxylic acid metabolite in urine and feces” value is recorded as 73 % of dose; the “dose excreted in the feces” value is “approximately 57%”; the “dose excreted into the urine” value is roughly 27%. Besides, in series [5], the protein bound is recorded as roughly 97%. Moreover, the solubility in chloroform entry in series [6] (chloroform) is reported as “soluble”. In addition, the solubility in methanol result in series [6] (methanol) is recorded as “soluble”. Further, in series [6] (water), the solubility in water result is recorded as “insoluble”. Moreover, in series [7], the “onset of pain relief” value was no less than 1 h.
